According to the NIST ThermoML archive (doi:10.1021/je100823t):

Tests used:
[1] = xn = mol fraction of the nth substance listed; conditions: 101 kPa, Liquid; for viscosity: Capillary tube (Ostwald / Ubbelohde) method; for mass density: Pycnometric method
[2] = 101 kPa, Liquid; for viscosity: Capillary tube (Ostwald / Ubbelohde) method; for mass density: Pycnometric method

CCCCCCO [hexan-1-ol] + Cc1ccccc1C
[1], x1 = 1
Conditions	mass density [kg/m3]	viscosity [mPa·s]
308.15 K	808.5	3.318
318.15 K	801.2	2.518

Cc1ccc(C)cc1 [1,4-dimethylbenzene] + CCCCCCO
[1], x2 = 0
Conditions	mass density [kg/m3]	viscosity [mPa·s]
308.15 K	848.2	0.541
318.15 K	839.5	0.486

Cc1ccc(C)cc1 [1,4-dimethylbenzene]
[2]
Conditions	mass density [kg/m3]	viscosity [mPa·s]
308.15 K	848.2	0.541
318.15 K	839.5	0.486

Cc1cccc(C)c1 [1,3-dimethylbenzene] + CCCCCCO
[1]
Conditions	mass density, 308.15 K [kg/m3]	mass density, 318.15 K [kg/m3]	viscosity, 308.15 K [mPa·s]	viscosity, 318.15 K [mPa·s]
x2 = 0	851.3	842.7	0.521	0.47
x2 = 0.1002	846.4	837.6	0.562	0.502
x2 = 0.2002	841.7	833	0.638	0.561
x2 = 0.3007	837.2	828.7	0.742	0.643
x2 = 0.4001	833	824.6	0.875	0.747
x2 = 0.5	828.8	820.6	1.057	0.885
x2 = 0.5999	824.7	816.6	1.298	1.066
x2 = 0.6999	820.6	812.7	1.629	1.306
x2 = 0.7999	816.6	808.8	2.072	1.623
x2 = 0.8999	812.6	805	2.643	2.031

Cc1cccc(C)c1 [1,3-dimethylbenzene]
[2]
Conditions	mass density [kg/m3]	viscosity [mPa·s]
308.15 K	851.3	0.521
318.15 K	842.7	0.47

Cc1ccccc1C [1,2-dimethylbenzene] + CCCCCCO
[1]
Conditions	mass density, 308.15 K [kg/m3]	mass density, 318.15 K [kg/m3]	viscosity, 308.15 K [mPa·s]	viscosity, 318.15 K [mPa·s]
x2 = 0	866.7	858.4	0.666	0.591
x2 = 0.0999	860.1	851.7	0.709	0.621
x2 = 0.1999	853.9	845.6	0.789	0.683
x2 = 0.2999	847.9	839.7	0.899	0.768
x2 = 0.4001	842.1	833.9	1.043	0.879
x2 = 0.4997	836.4	828.3	1.23	1.02
x2 = 0.6	830.7	822.7	1.475	1.199
x2 = 0.7	825.1	817.2	1.799	1.431
x2 = 0.8	819.5	811.8	2.217	1.73
x2 = 0.8999	814	806.4	2.738	2.104

CCCCCCO [hexan-1-ol] + Cc1cccc(C)c1
[1], x1 = 1
Conditions	mass density [kg/m3]	viscosity [mPa·s]
308.15 K	808.5	3.318
318.15 K	801.2	2.518

CCCCCCO [hexan-1-ol]
[2]
Conditions	mass density [kg/m3]	viscosity [mPa·s]
308.15 K	808.5	3.318
318.15 K	801.2	2.518

CCCCCCO [hexan-1-ol] + Cc1ccc(C)cc1
[1]
Conditions	mass density, 308.15 K [kg/m3]	mass density, 318.15 K [kg/m3]	viscosity, 308.15 K [mPa·s]	viscosity, 318.15 K [mPa·s]
x1 = 0.1001	843.6	834.9	0.578	0.513
x1 = 0.2001	839.4	830.8	0.647	0.567
x1 = 0.2999	835.4	826.9	0.742	0.643
x1 = 0.4001	831.4	823.1	0.87	0.743
x1 = 0.5009	827.5	819.3	1.046	0.877
x1 = 0.5999	823.7	815.6	1.279	1.051
x1 = 0.6999	819.9	811.9	1.602	1.287
x1 = 0.8	816.1	808.3	2.042	1.604
x1 = 0.9	812.3	804.7	2.618	2.017
x1 = 1	808.5	801.2	3.318	2.518

Cc1ccccc1C [1,2-dimethylbenzene]
[2]
Conditions	mass density [kg/m3]	viscosity [mPa·s]
308.15 K	866.7	0.666
318.15 K	858.4	0.591
